From US20230340011A1 (Asteroid Therapeutics, priority 2022, published 2023)

How the values were obtained:
SREBP-2 = SREBP-2 (Homo sapiens (Human), UniProt Q12772); assay: In vitro assay SREBP-2: PathHunter U2OS SREBP-2 Nuclear Translocation Cell Line, U18666A-stimulated; type: cell-based; conditions: PathHunter U2OS SREBP-2 nuclear translocation cells, U18666A 10 μM, overnight (16 hours)
LXRβ = LXRβ (Homo sapiens (Human), UniProt P55055); assay: In vitro assay LXRβ: PathHunter NHR CHO cells, LXRβ / Steroid Receptor Co-activator Peptide enzyme fragment complementation; type: cell-based; conditions: PathHunter NHR CHO cells, full-length human LXRβ and SRCP, chemiluminescent signal; read-out: LXRβ PPI
Sequence of LXRβ (P55055 whole entry, the tested form may be a part): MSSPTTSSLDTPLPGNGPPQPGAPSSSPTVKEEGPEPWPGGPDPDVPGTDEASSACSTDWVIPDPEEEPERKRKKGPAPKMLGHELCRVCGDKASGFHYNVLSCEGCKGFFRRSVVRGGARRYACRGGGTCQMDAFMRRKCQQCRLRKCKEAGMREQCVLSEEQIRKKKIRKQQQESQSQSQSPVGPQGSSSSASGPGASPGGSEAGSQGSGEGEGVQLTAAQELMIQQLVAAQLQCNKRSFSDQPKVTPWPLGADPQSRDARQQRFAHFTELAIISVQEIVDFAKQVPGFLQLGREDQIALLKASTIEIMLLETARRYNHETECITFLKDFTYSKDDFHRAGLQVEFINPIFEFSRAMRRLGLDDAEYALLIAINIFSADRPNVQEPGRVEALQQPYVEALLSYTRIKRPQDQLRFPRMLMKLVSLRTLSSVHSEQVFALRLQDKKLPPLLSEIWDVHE
In short: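 Enzyme fragment complementation read-out: CHO cells stably expressing ProLink-tagged full-length human LXRβ plus nuclear enzyme acceptor–SRCP fusion, seeded and held overnight at 37° C. Medium with charcoal-dextran filtered serum; final vehicle 1%. Chemiluminescence measured after signal generation.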

Structure (SMILES) | IC50 (SREBP-2) [nM] | EC50 (LXRβ) [nM]
C[C@H](CCC(=O)N1CCC(C)(CNC(=O)C(C)(C)O)CC1)[C@H]1CC[C@H]2[C@@H]3CC=C4C[C@@H](O)CC[C@]4(C)[C@H]3CC[C@]12C [Example 365, 2-hydroxy-N-((1-((R)-4-((3S,8S,9S,10R,13R,14S,17R)-3-hydroxy-10,13-dimethyl-2,3,4,7,8,9,10,11,12,13,14,15,16,17-tetradecahydro-1H-cyclopenta[a]phenanthren-17-yl)pentanoyl)-4-methylpiperidin-4-yl)methyl)-2-methylpropanamide] | < 250 | > 10000
C[C@H](CCC(=O)N1CCC(C)(CNS(C)(=O)=O)CC1)[C@H]1CC[C@H]2[C@@H]3CC=C4C[C@@H](O)CC[C@]4(C)[C@H]3CC[C@]12C [Example 367, N-({1-[(4R)-4-[(1R,3aS,3bS,7S,9aR,9bS,11aR)-7-hydroxy-9a,11a-dimethyl-1H,2H,3H,3aH,3bH,4H,6H,7H,8H,9H,9aH,9bH,10H,11H,11aH-cyclopenta[a]phenanthren-1-yl]pentanoyl]-4-methylpiperidin-4-yl}methyl)methanesulfonamide] | < 250 | > 10000
C[C@H](CCc1ccccn1)[C@H]1CC[C@H]2[C@@H]3CC=C4C[C@@](C)(O)CC[C@]4(C)[C@H]3CC[C@]12C [Example 369, (3S,8S,9S,10R,13R,14S,17R)-3,10,13-trimethyl-17-((R)-4-(pyridin-2-yl)butan-2-yl)-2,3,4,7,8,9,10,11,12,13,14,15,16,17-tetradecahydro-1H-cyclopenta[a]phenanthren-3-ol] | 250 to 1000 | 1000 to 10000
C[C@H](CCC(=O)N1CC2(C1)CC(C)(CO)C2)[C@H]1CC[C@H]2[C@@H]3CC=C4C[C@@H](O)CC[C@]4(C)[C@H]3CC[C@]12C [Example 372, (R)-4-((3S,8S,9S,10R,13R,14S,17R)-3-hydroxy-10,13-dimethyl-2,3,4,7,8,9,10,11,12,13,14,15,16,17-tetradecahydro-1H-cyclopenta[a]phenanthren-17-yl)-1-(6-(hydroxymethyl)-6-methyl-2-azaspiro[3.3]heptan-2-yl)pentan-1-one] | < 250 | > 10000
C[C@H](CCC(=O)N1CCCC(C)(CO)CC1)[C@H]1CC[C@H]2[C@@H]3CC=C4C[C@@H](O)CC[C@]4(C)[C@H]3CC[C@]12C (stereo partly drawn) [Example 375, (4R)-4-((3S,8S,9S,10R,13R,14S,17R)-3-hydroxy-10,13-dimethyl-2,3,4,7,8,9,10,11,12,13,14,15,16,17-tetradecahydro-1H-cyclopenta[a]phenanthren-17-yl)-1-(4-(hydroxymethyl)-4-methylazepan-1-yl)pentan-1-one] | < 250 | > 10000
C[C@H](CCC(=O)N1CCC(CO)CC1)[C@H]1CC[C@H]2[C@@H]3CC=C4C[C@@H](O)CC[C@]4(C)[C@H]3CC[C@]12C [Example 376, (4R)-4-[(1R,3aS,3bS,7S,9aR,9bS,11aR)-7-hydroxy-9a,11a-dimethyl-1H,2H,3H,3aH,3bH,4H,6H,7H,8H,9H,9aH,9bH,10H,11H,11aH-cyclopenta[a]phenanthren-1-yl]-1-[4-(hydroxymethyl)piperidin-1-yl]pentan-1-one] | < 250 | 250 to 1000
CC(O)C1CCN(C(=O)CC[C@@H](C)[C@H]2CC[C@H]3[C@@H]4CC=C5C[C@@H](O)CC[C@]5(C)[C@H]4CC[C@]23C)CC1 (stereo partly drawn) [Example 377, (4R)-4-[(1R,3aS,3bS,7S,9aR,9bS,11aR)-7-hydroxy-9a,11a-dimethyl-1H,2H,3H,3aH,3bH,4H,6H,7H,8H,9H,9aH,9bH,10H,11H,11aH-cyclopenta[a]phenanthren-1-yl]-1-[4-(1-hydroxyethyl)piperidin-1-yl]pentan-1-one] | < 250 | 250 to 1000
C[C@H](CCC(=O)N1CCC(C(C)(C)O)CC1)[C@H]1CC[C@H]2[C@@H]3CC=C4C[C@@H](O)CC[C@]4(C)[C@H]3CC[C@]12C [Example 378, (R)-4-((3S,8S,9S,10R,13R,14S,17R)-3-hydroxy-10,13-dimethyl-2,3,4,7,8,9,10,11,12,13,14,15,16,17-tetradecahydro-1H-cyclopenta[a]phenanthren-17-yl)-1-(4-(2-hydroxypropan-2-yl)piperidin-1-yl)pentan-1-one] | < 250 | > 10000
C[C@H](Oc1ccncc1)[C@H]1CC[C@H]2[C@@H]3CC=C4C[C@@H](O)CC[C@]4(C)[C@H]3CC[C@]12C [Example 379, (1S,3aS,3bS,7S,9aR,9bS,11aS)-9a,11a-dimethyl-1-[(1S)-1-(pyridin-4-yloxy)ethyl]-1H,2H,3H,3aH,3bH,4H,6H,7H,8H,9H,9aH,9bH,10H,11H,11aH-cyclopenta[a]phenanthren-7-ol] | 250 to 1000 | > 10000
C[C@H](Oc1cccnc1)[C@H]1CC[C@H]2[C@@H]3CC=C4C[C@@H](O)CC[C@]4(C)[C@H]3CC[C@]12C [Example 380, (3S,8S,9S,10R,13S,14S,17S)-10,13-dimethyl-17-((S)-1-(pyridin-3-yloxy)ethyl)-2,3,4,7,8,9,10,11,12,13,14,15,16,17-tetradecahydro-1H-cyclopenta[a]phenanthren-3-ol] | < 250 | > 10000
C[C@H](CCC(=O)N1CCN(C(=O)c2ncnn2C)CC1)[C@H]1CC[C@H]2[C@@H]3CC=C4C[C@@H](O)CC[C@]4(C)[C@H]3CC[C@]12C [Example 382, (R)-4-((3S,8S,9S,10R,13R,14S,17R)-3-hydroxy-10,13-dimethyl-2,3,4,7,8,9,10,11,12,13,14,15,16,17-tetradecahydro-1H-cyclopenta[a]phenanthren-17-yl)-1-(4-(1-methyl-1H-1,2,4-triazole-5-carbonyl)piperazin-1-yl)pentan-1-one] | < 250 | > 10000
CCC(=O)N1CCN(C(=O)CC[C@@H](C)[C@H]2CC[C@H]3[C@@H]4CC=C5C[C@@H](O)CC[C@]5(C)[C@H]4CC[C@]23C)CC1 [Example 385, (R)-4-((3S,8S,9S,10R,13R,14S,17R)-3-hydroxy-10,13-dimethyl-2,3,4,7,8,9,10,11,12,13,14,15,16,17-tetradecahydro-1H-cyclopenta[a]phenanthren-17-yl)-1-(4-propionylpiperazin-1-yl) pentan-1-one] | < 250 | > 10000
C[C@H](CCC(=O)N1CCN(c2ccncc2)CC1)[C@H]1CC[C@H]2[C@@H]3CC=C4C[C@@H](O)CC[C@]4(C)[C@H]3CC[C@]12C [Example 396, (R)-4-((3S,8S,9S,10R,13R,14S,17R)-3-hydroxy-10,13-dimethyl-2,3,4,7,8,9,10,11,12,13,14,15,16,17-tetradecahydro-1H-cyclopenta[a]phenanthren-17-yl)-1-(4-(pyridin-4-yl)piperazin-1-yl)pentan-1-one] | < 250 | > 10000
CC(=O)N1CCOC12CN(C(=O)CC[C@@H](C)[C@H]1CC[C@H]3[C@@H]4CC=C5C[C@@H](O)CC[C@]5(C)[C@H]4CC[C@]13C)C2 [Example 410, (4R)-4-[(1R,3aS,3bS,7S,9aR,9bS,11aR)-7-hydroxy-9a,11a-dimethyl-1H,2H,3H,3aH,3bH,4H,6H,7H,8H,9H,9aH,9bH,10H,11H,11aH-cyclopenta[a]phenanthren-1-yl]-1-{δ-acetyl-5-oxa-2,8-diazaspiro[3.4]octan-2-yl}pentan-1-one] | 1000 to 10000 | > 10000
C[C@H](CCC(=O)N1CCC(S(=O)(=O)N(C)C)CC1)[C@H]1CC[C@H]2[C@@H]3CC=C4C[C@@H](O)CC[C@]4(C)[C@H]3CC[C@]12C [Example 413, 1-((R)-4-((3S,8S,9S,10R,13R,14S,17R)-3-hydroxy-10,13-dimethyl-2,3,4,7,8,9,10,11,12,13,14,15,16,17-tetradecahydro-1H-cyclopenta[a]phenanthren-17-yl)pentanoyl)-N,N-dimethylpiperidine-4-sulfonamide] | 250 to 1000 | > 10000
C[C@H](CCC(=O)N1CCC(NS(C)(=O)=O)CC1)[C@H]1CC[C@H]2[C@@H]3CC=C4C[C@@H](O)CC[C@]4(C)[C@H]3CC[C@]12C [Example 414, N-(1-((R)-4-((3S,8S,9S,10R,13R,14S,17R)-3-hydroxy-10,13-dimethyl-2,3,4,7,8,9,10,11,12,13,14,15,16,17-tetradecahydro-1H-cyclopenta[a]phenanthren-17-yl)pentanoyl)piperidin-4-yl)methanesulfonamide] | 250 to 1000 | > 10000
C[C@H](CCC(=O)N1CCC(N(C)C(=O)c2ccncc2)CC1)[C@H]1CC[C@H]2[C@@H]3CC=C4C[C@@H](O)CC[C@]4(C)[C@H]3CC[C@]12C [Example 416, N-(1-((R)-4-((3S,8S,9S,10R,13R,14S,17R)-3-hydroxy-10,13-dimethyl-2,3,4,7,8,9,10,11,12,13,14,15,16,17-tetradecahydro-1H-cyclopenta[a]phenanthren-17-yl)pentanoyl)piperidin-4-yl)-N-methylisonicotinamide] | < 250 | > 10000
CC[C@]1(O)CC[C@@]2(C)C(=CC[C@H]3[C@@H]4CC[C@H]([C@H](C)CCC(=O)N5CCN(C(=O)OC)CC5)[C@@]4(C)CC[C@@H]32)C1 [Example 420, Methyl 4-[(4R)-4-[(1R,3aS,3bS,7S,9aR,9bS,11aR)-7-ethyl-7-hydroxy-9a,11a-dimethyl-1H,2H,3H,3aH,3bH,4H,6H,7H,8H,9H,9aH,9bH,10H,11H,11aH-cyclopenta[a]phenanthren-1-yl]pentanoyl]piperazine-1-carboxylate] | < 250 | > 10000
C[C@H](CCc1ncccc1CO)[C@H]1CC[C@H]2[C@@H]3CC=C4C[C@@H](O)CC[C@]4(C)[C@H]3CC[C@]12C [Example 454, (3S,8S,9S,10R,13R,14S,17R)-17-((R)-4-(3-(hydroxymethyl)pyridin-2-yl)butan-2-yl)-10,13-dimethyl-2,3,4,7,8,9,10,11,12,13,14,15,16,17-tetradecahydro-1H-cyclopenta[a]phenanthren-3-ol] | < 250 | < 250
